Test results reported in patent US10508085B2, “Compounds and methods for IDO and TDO modulation, and indications therefor” (Plexxikon Inc., priority 2016, dated 2019).

Experiments:
[1] = molecular target: T1, Human Indoleamine 2,3-dioxygenase (IDO) (Homo sapiens, UniProt P14902); experiment: Human IDO enzymatic assay (kynurenine level); type: biochemical; settings: 6 nM IDO, 10 μM L-Trp; geometric mean; read-out: IDO1 GMean: IC50 (μM) (Biochemical Assay)
T1 construct: His tag (N); made in house; host or cells: E. coli
T1 sequence (P14902 whole entry): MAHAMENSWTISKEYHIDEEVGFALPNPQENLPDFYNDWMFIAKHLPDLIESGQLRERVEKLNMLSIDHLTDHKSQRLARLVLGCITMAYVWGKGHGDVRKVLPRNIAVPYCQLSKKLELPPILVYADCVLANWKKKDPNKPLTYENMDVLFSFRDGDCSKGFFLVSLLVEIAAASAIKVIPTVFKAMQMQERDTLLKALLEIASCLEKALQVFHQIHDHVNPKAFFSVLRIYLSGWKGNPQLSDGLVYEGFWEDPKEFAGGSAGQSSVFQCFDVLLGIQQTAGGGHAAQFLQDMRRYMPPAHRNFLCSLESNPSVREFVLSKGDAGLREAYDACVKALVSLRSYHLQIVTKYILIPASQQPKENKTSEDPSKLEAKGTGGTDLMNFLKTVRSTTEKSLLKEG
How it was run: (§1)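 N-terminally His-tagged enzymes expressed in E. coli were run in 50 mM sodium phosphate pH 6.5 with 10 mM ascorbate, catalase and Tween 20. IDO: 6 nM enzyme, 10 μM L-Trp, 5 μM methylene blue, 20 min RT. TDO: 1 nM enzyme, 350 μM L-Trp, 0.4 μM methylene blue, 70 min RT.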

[2] = molecular target: T2, Human Tryptophan 2,3-dioxygenase (TDO) (Homo sapiens, UniProt P48775); experiment: Human TDO enzymatic assay (kynurenine level); type: biochemical; settings: 1 nM TDO, 350 μM L-Trp; geometric mean; read-out: TDO GMean: IC50 (μM) (Biochemical Assay)
T2 construct: His tag (N); made in house; host or cells: E. coli
T2 sequence (P48775 whole entry): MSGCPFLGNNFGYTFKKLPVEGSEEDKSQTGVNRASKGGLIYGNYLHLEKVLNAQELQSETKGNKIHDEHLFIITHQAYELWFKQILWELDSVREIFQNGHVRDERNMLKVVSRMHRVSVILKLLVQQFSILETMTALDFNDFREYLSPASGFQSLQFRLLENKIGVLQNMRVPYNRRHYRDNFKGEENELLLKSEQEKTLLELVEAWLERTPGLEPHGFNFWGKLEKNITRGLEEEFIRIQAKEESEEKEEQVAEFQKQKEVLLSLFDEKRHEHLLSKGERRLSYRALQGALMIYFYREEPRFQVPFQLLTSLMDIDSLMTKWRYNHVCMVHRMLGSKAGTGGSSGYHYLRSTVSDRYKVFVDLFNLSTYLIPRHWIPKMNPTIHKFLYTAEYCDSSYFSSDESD
How it was run: as §1

[3] = molecular target: T3, human IDO (IDO1-expressing HEK293 cells) (Homo sapiens, UniProt P14902); experiment: Cell based kynurenine assay, IDO1-expressing HEK293 cell clones; settings: IDO1-expressing HEK293 cells, 24 hours, geometric mean; read-out: HEK293 IDO1 Kynurenine GMean IC50 (μM) (Cellular Assay)
T3 construct: expressed in transfected cells
T3 sequence (P14902 whole entry): as the sequence (P14902 whole entry) above
How it was run: (§2)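 Stably transfected HEK293 clones expressing human IDO1 or TDO (CMV promoter) were seeded at 2.5×10^4 cells/well and treated with serially diluted compounds for 24 h. Supernatant kynurenine was then measured, and % inhibition versus DMSO-treated cell and media-only controls was fitted by nonlinear regression to give IC50.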

[4] = molecular target: T4, human TDO (TDO-expressing HEK293 cells) (Homo sapiens, UniProt P48775); experiment: Cell based kynurenine assay, TDO-expressing HEK293 cell clones; settings: TDO-expressing HEK293 cells, 24 hours, geometric mean; read-out: HEK293 TDO Kynurenine GMean IC50 (μM) (Cellular Assay)
T4 construct: expressed in transfected cells
T4 sequence (P48775 whole entry): as the sequence (P48775 whole entry) above
How it was run: as §2

Structure (SMILES)	IC50 [1] [µM]	IC50 [2] [µM]	IC50 [3] [µM]	IC50 [4] [µM]
O=C(Cc1cccc(Cl)c1)N1CCC(C(F)(F)C(O)c2cc(Cl)cc3cn[nH]c23)CC1 (stereo not shown) [Compound P-0520, 1-(4-(2-(5-chloro-1H-indazol-7-yl)-1,1-difluoro-2-hydroxyethyl)piperidin-1-yl)-2-(3-chlorophenyl) ethan-1-one]	0.0001 to 10	0.0001 to 10	0.0001 to 10	0.0001 to 10
O=C(Cc1ccc(Cl)c(F)c1)N1CCC(C(F)(F)C(O)c2cc(Cl)cc3cn[nH]c23)CC1 (stereo not shown) [Compound P-0523, 1-(4-(2-(5-chloro-1H-indazol-7-yl)-1,1-difluoro-2-hydroxyethyl)piperidin-1-yl)-2-(4-chloro-3-fluorophenyl)ethan-1-one]	0.0001 to 10	0.0001 to 10	0.0001 to 10	0.0001 to 10
O=C(Cc1ccc(F)c(Cl)c1)N1CCC(C(F)(F)C(O)c2cc(Cl)cc3cn[nH]c23)CC1 (stereo not shown) [Compound P-0524, 1-(4-(2-(5-chloro-1H-indazol-7-yl)-1,1-difluoro-2-hydroxyethyl)piperidin-1-yl)-2-(3-chloro-4-fluorophenyl) ethan-1-one]	0.0001 to 10	0.0001 to 10	0.0001 to 10	0.0001 to 10
O=C(Cc1ccnc(Cl)c1)N1CCC(C(F)(F)C(O)c2cc(Cl)cc3cn[nH]c23)CC1 (stereo not shown) [Compound P-0525, 1-(4-(2-(5-chloro-1H-indazol-7-yl)-1,1-difluoro-2-hydroxyethyl)piperidin-1-yl)-2-(2-chloropyridin-4-yl)ethan-1-one]	0.0001 to 10	0.0001 to 10	0.0001 to 10	0.0001 to 10
COc1cc(CC(=O)N2CCC(C(F)(F)C(O)c3cc(Cl)cc4cn[nH]c34)CC2)ccn1 (stereo not shown) [Compound P-0526, 1-(4-(2-(5-chloro-1H-indazol-7-yl)-1,1-difluoro-2-hydroxyethyl)piperidin-1-yl)-2-(2-methoxypyridin-4-yl)ethan-1-one]	0.0001 to 10	0.0001 to 10	0.0001 to 10	0.0001 to 10
CC(C)(C)OC(=O)N1CCC(C(F)(F)[C@@H](O)c2c3c(cc4cn[nH]c24)CC3)CC1 [Compound P-0528, tert-butyl (S)-4-(2-(5,6-dihydro-1H-cyclobuta[f]indazol-7-yl)-1,1-difluoro-2-hydroxyethyl) piperidine-1-carboxylate]	0.0001 to 10	> 200	0.0001 to 10	0.0001 to 10
CC(C)(C1CCN(C(=O)C2CC2)CC1)[C@H](O)c1cc(Cl)cc2cn[nH]c12 [Compound P-0529, (S)-(4-(1-(5-chloro-1H-indazol-7-yl)-1-hydroxy-2-methylpropan-2-yl)piperidin-1-yl)(cyclopropyl) methanone]	0.0001 to 10	0.0001 to 10	0.0001 to 10	0.0001 to 10
CC(C)(C1CCN(C(=O)CC2CC2)CC1)[C@H](O)c1cc(Cl)cc2cn[nH]c12 [Compound P-0530, (S)-1-(4-(1-(5-chloro-1H-indazol-7-yl)-1-hydroxy-2-methylpropan-2-yl)piperidin-1-yl)-2-cyclopropylethan-1-one]	0.0001 to 10	0.0001 to 10	0.0001 to 10	0.0001 to 10
COCC(=O)N1CCC(C(C)(C)[C@H](O)c2cc(Cl)cc3cn[nH]c23)CC1 [Compound P-0533, (S)-1-(4-(1-(5-chloro-1H-indazol-7-yl)-1-hydroxy-2-methylpropan-2-yl)piperidin-1-yl)-2-methoxyethan-1-one]	0.0001 to 10	0.0001 to 10	0.0001 to 10	0.0001 to 10

The remaining lines, values ahead:

IC50 [1] [µM]	IC50 [2] [µM]	IC50 [3] [µM]	IC50 [4] [µM]	Structure (SMILES)
0.0001 to 10	0.0001 to 10	0.0001 to 10	0.0001 to 10	CC(C)(C1CCN(C(=O)Cc2ccc(Cl)c(F)c2)CC1)[C@H](O)c1cc(Cl)cc2cn[nH]c12 [Compound P-0518, (S)-1-(4-(1-(5-chloro-1H-indazol-7-yl)-1-hydroxy-2-methylpropan-2-yl)piperidin-1-yl)-2-(4-chloro-3-fluorophenyl) ethan-1-one]
0.0001 to 10	0.0001 to 10	0.0001 to 10	0.0001 to 10	CC(C)(C1CCN(C(=O)Cc2ccc(F)c(Cl)c2)CC1)[C@H](O)c1cc(Cl)cc2cn[nH]c12 [Compound P-0519, (S)-1-(4-(1-(5-chloro-1H-indazol-7-yl)-1-hydroxy-2-methylpropan-2-yl)piperidin-1-yl)-2-(3-chloro-4-fluorophenyl)ethan-1-one]
0.0001 to 10	0.0001 to 10	0.0001 to 10	0.0001 to 10	COc1ccc(CC(=O)N2CCC(C(F)(F)C(O)c3cc(Cl)cc4cn[nH]c34)CC2)cn1 (stereo not shown) [Compound P-0521, 1-(4-(2-(5-chloro-1H-indazol-7-yl)-1,1-difluoro-2-hydroxyethyl)piperidin-1-yl)-2-(6-methoxypyridin-3-yl)ethan-1-one]
0.0001 to 10	0.0001 to 10	0.0001 to 10	0.0001 to 10	COc1cccc(CC(=O)N2CCC(C(F)(F)C(O)c3cc(Cl)cc4cn[nH]c34)CC2)c1 (stereo not shown) [Compound P-0522, 1-(4-(2-(5-chloro-1H-indazol-7-yl)-1,1-difluoro-2-hydroxyethyl)piperidin-1-yl)-2-(3-methoxyphenyl) ethan-1-one]
0.0001 to 10	10 to 100	0.0001 to 10	0.0001 to 10	CC(C)(C)OC(=O)N1CCC(C(F)(F)[C@H](O)c2c3c(cc4cn[nH]c24)CC3)CC1 [Compound P-0527, tert-butyl (R)-4-(2-(5,6-dihydro-1H-cyclobuta[f]indazol-7-yl)-1,1-difluoro-2-hydroxyethyl) piperidine-1-carboxylate]
0.0001 to 10	0.0001 to 10	0.0001 to 10	0.0001 to 10	CC(C)(C1CCN(C(=O)CC(F)(F)F)CC1)[C@H](O)c1cc(Cl)cc2cn[nH]c12 [Compound P-0531, (S)-1-(4-(1-(5-chloro-1H-indazol-7-yl)-1-hydroxy-2-methylpropan-2-yl)piperidin-1-yl)-3,3,3-trifluoropropan-1-one]
0.0001 to 10	0.0001 to 10	0.0001 to 10	0.0001 to 10	CC(C)(C1CCN(C(=O)CC2CCOCC2)CC1)[C@H](O)c1cc(Cl)cc2cn[nH]c12 [Compound P-0532, (S)-1-(4-(1-(5-chloro-1H-indazol-7-yl)-1-hydroxy-2-methylpropan-2-yl)piperidin-1-yl)-2-(tetrahydro-2H-pyran-4-yl)ethan-1-one]
0.0001 to 10	0.0001 to 10	0.0001 to 10	0.0001 to 10	CC(C)(C1CCN(C(=O)CC#N)CC1)[C@H](O)c1cc(Cl)cc2cn[nH]c12 [Compound P-0534, (S)-3-(4-(1-(5-chloro-1H-indazol-7-yl)-1-hydroxy-2-methylpropan-2-yl)piperidin-1-yl)-3-oxopropanenitrile]
0.0001 to 10	0.0001 to 10	0.0001 to 10	0.0001 to 10	CC(C)(C1CCN(C(=O)CO)CC1)[C@H](O)c1cc(Cl)cc2cn[nH]c12 [Compound P-0535, (S)-1-(4-(1-(5-chloro-1H-indazol-7-yl)-1-hydroxy-2-methylpropan-2-yl)piperidin-1-yl)-2-hydroxyethan-1-one]
0.0001 to 10	0.0001 to 10	0.0001 to 10	0.0001 to 10	CC(C)(C1CCN(C(=O)c2cccnc2)CC1)[C@H](O)c1cc(Cl)cc2cn[nH]c12 [Compound P-0536, (S)-(4-(1-(5-chloro-1H-indazol-7-yl)-1-hydroxy-2-methylpropan-2-yl)piperidin-1-yl)(pyridin-3-yl)methanone]
